Results reported in patent US20050214738A1, “Conditional allele system” (priority 2003, published 2005).

Target: T1, FRB*Pax6 (UniProt P26883+P42345, K2095P/T2098L/W2101F)
T1 construct: The minimal FRB domain comprises amino acids 2025-2114 of human mTor; from tissue; host or cells: e13.5 cortical neural cultures (A14) and cultured whole embryos (A15) from Pax6^FRB* knock-in mice; fusion expressed from the targeted endogenous locus
Assay: Whole embryo culture, inducible stabilization of FRB*Pax6
Parameters: species or system mouse
Description: Uterine horns were removed from sacrificed mothers to a petri dish containing Hank's Balanced Salt Solution (HBSS), fat was removed and the uterus cut up to isolate embryos. Individual deciduum were carefully removed from the uterus by carefully pulling apart the muscular layers in a fresh petri dish containing HBSS (sometimes supplemented with 2 mg/mL glucose) under a dissecting microscope. Embryos were removed by cutting along the lateral axis of the deciduum with fine forceps taking care not to puncture the embryonic membranes and teasing off the decidual layers overlying the embryo. Embryos were then separated from the remaining decidua at the ectoplacental cone or primitive placenta (depending on the age of the embryo).
Reichert's membrane was grasped without the underlying visceral yolk sac, carefully torn away from the embryo and trimmed back to the placenta without ripping the yolk sac. […] The bottle rotated slowly in a roller bottle chamber at 37° C. Drugs were added directly to the culture media at the commencement of the culture.
Embryos were fixed overnight in 4% paraformaldehyde/PBS then dehydrated through a staged ethanol series. Endogenous peroxidases were inactivated with 5% H2O2 for 4 hours in ethanol and the embryos were rehydrated. […] Embryos were washed in block 6 hours with 1 hour changes and incubated overnight at 4° C. with […] anti-mouse secondary. Embryos were washed with PBS+0.1% Triton X-100 4 times for 1 hour and developed with the DAB peroxidase kit from Vector laboratories.
Embryos were protected with a staged series to 30% sucrose in PBS after fixation in 4% PFA (60 minutes to overnight at 4° C.). Protected embryos were embedded in OCT (VWR) frozen and sectioned on a Leica cryostat to 10 μm. Thin sections were stained according to standard protocols (obtained upon request). Secondary antibodies were purchased from Molecular Probes (Eugene, Oreg.) and primary antibodies to neurofilament, Lim3, Nkx2.2, Pax6, En1, Isl1 were obtained from Dev. Studies. Additional antibodies were from Covance, Zymed or a generous gift of Tadashi Nomura and Noriko Osumi (Sendai, Japan). Immunofluorescence was visualized by confocal microscopy.

T1 sequence (P42345 2025-2114 K2095P/T2098L/W2101F): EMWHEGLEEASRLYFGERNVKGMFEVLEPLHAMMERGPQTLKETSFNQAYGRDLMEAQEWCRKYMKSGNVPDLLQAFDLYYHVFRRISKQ
T1 sequence (P26883 2-108): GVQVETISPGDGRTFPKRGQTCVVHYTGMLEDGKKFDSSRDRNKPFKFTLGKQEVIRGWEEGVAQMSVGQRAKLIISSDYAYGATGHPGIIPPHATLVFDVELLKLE

C20-(R or S)-methallylrapamycin [C20-MaRap]
Lim3 phenotype of caudal hindbrain (48 hours from e9.5 to e11.5): could be rescued | hypoglossal nerve, whole mount neurofilament staining (48 hours from e9.5 to e11.5): fasciculated hypoglossal nerve erupts | expression of FRB*Pax6 protein in the spinal cord (Pax6FRB*/FRB* embryos, data not shown): rescued | En1 expressing cells in the V1 domain of spinal cord (e8.5 embryos cultured 48 hours, 2 μM): rescued the development of En1 expressing cells | cells expressing Lim3 in spinal cord (e9.5 to e11.5, 2 μM): expansion of cells expressing Lim3 | effect on wild-type embryos (embryo cultures): no obvious effect
